Experimental data reported in PubChem BioAssay AID2060496 (Molecular Pharmacology Branch, DTP, NCI, 2025).

System: 276233-004-R-J1-PDC complex spheroid viability
Test: Anticancer human tumor 276233-004-R-J1-PDC patient-derived colon adenocarcinoma cell line growth inhibition [GQUAD]
Details: for IC50: curve of first compound; for viability, T/C: stronger effect = lower value
In short: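 Viability of tumor cells grown as complex spheroids with endothelial and stromal cells, exposed to drug combinations. Top concentration at or near clinical Cmax (else 10 microM), diluted in half-log increments.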

[1] = second compound 0.0316 µM, first compound 0.0316 µM
[2] = second compound 0.0316 µM, first compound 0.1 µM
[3] = second compound 0.0316 µM, first compound 0.316 µM
[4] = second compound 0.0316 µM, first compound 1 µM
[5] = second compound 0.0316 µM, first compound 3.16 µM
[6] = second compound 0.0316 µM, first compound 10 µM
[7] = second compound 0.1 µM, first compound 0.0316 µM
[8] = second compound 0.1 µM, first compound 0.1 µM
[9] = second compound 0.1 µM, first compound 0.316 µM
[10] = second compound 0.1 µM, first compound 1 µM
[11] = second compound 0.1 µM, first compound 3.16 µM
[12] = second compound 0.1 µM, first compound 10 µM
[13] = second compound 0.316 µM, first compound 0.0316 µM
[14] = second compound 0.316 µM, first compound 0.1 µM
[15] = second compound 0.316 µM, first compound 0.316 µM
[16] = second compound 0.316 µM, first compound 1 µM
[17] = second compound 0.316 µM, first compound 3.16 µM
[18] = second compound 0.316 µM, first compound 10 µM
[19] = second compound 1 µM, first compound 0.0316 µM
[20] = second compound 1 µM, first compound 0.1 µM
[21] = second compound 1 µM, first compound 0.316 µM
[22] = second compound 1 µM, first compound 1 µM
[23] = second compound 1 µM, first compound 3.16 µM
[24] = second compound 1 µM, first compound 10 µM
[25] = second compound 3.16 µM, first compound 0.0316 µM
[26] = second compound 3.16 µM, first compound 0.1 µM
[27] = second compound 3.16 µM, first compound 0.316 µM
[28] = second compound 3.16 µM, first compound 1 µM
[29] = second compound 3.16 µM, first compound 3.16 µM
[30] = second compound 3.16 µM, first compound 10 µM
[31] = second compound 10 µM, first compound 0.0316 µM
[32] = second compound 10 µM, first compound 0.1 µM
[33] = second compound 10 µM, first compound 0.316 µM
[34] = second compound 10 µM, first compound 1 µM
[35] = second compound 10 µM, first compound 3.16 µM
[36] = second compound 10 µM, first compound 10 µM
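Also: spheroids exposed to drugs for seven days.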
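For viability, T/C in this document: 100% = DMSO vehicle control viability.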

Compound: COc1cccc2c1C(=O)c1c(O)c3c(c(O)c1C2=O)CC(O)(C(=O)CO)CC3OC1CC(N)C(O)C(C)O1 (centres undefined) + Cc1[nH]c2ccc(F)cc2c1-c1nc2c3cccnc3c3ncccc3c2[nH]1
- IC50 (second compound 0.0316 µM): 2.48 µM
- IC50 (second compound 0.1 µM): 4.57 µM
- IC50 (second compound 0.316 µM): 3.27 µM
- IC50 (second compound 1 µM): 3.6 µM
- IC50 (second compound 3.16 µM): 0.415 µM
- IC50 (second compound 10 µM): < 0.0316 µM
- viability, T/C [1]: 79.4%
- viability, T/C [2]: 79.9%
- viability, T/C [3]: 108%
- viability, T/C [4]: 64.9%
- viability, T/C [5]: 53%
- viability, T/C [6]: 39%
- viability, T/C [7]: 82.6%
- viability, T/C [8]: 96.3%
- viability, T/C [9]: 75.3%
- viability, T/C [10]: 89.1%
- viability, T/C [11]: 54.2%
- viability, T/C [12]: 40.9%
- viability, T/C [13]: 82.6%
- viability, T/C [14]: 82.6%
- viability, T/C [15]: 81.3%
- viability, T/C [16]: 77.2%
- viability, T/C [17]: 50.5%
- viability, T/C [18]: 34.2%
- viability, T/C [19]: 57.2%
- viability, T/C [20]: 78.3%
- viability, T/C [21]: 70.1%
- viability, T/C [22]: 70.9%
- viability, T/C [23]: 52.1%
- viability, T/C [24]: 33.8%
- viability, T/C [25]: 50.7%
- viability, T/C [26]: 63.5%
- viability, T/C [27]: 52.3%
- viability, T/C [28]: 41.4%
- viability, T/C [29]: 43.3%
- viability, T/C [30]: 35.7%
- viability, T/C [31]: 50%
- viability, T/C [32]: 44.4%
- viability, T/C [33]: 49.1%
- viability, T/C [34]: 47.6%
- viability, T/C [35]: 39.7%
- viability, T/C [36]: 27.6%

Compound: COc1cccc2c1C(=O)c1c(O)c3c(c(O)c1C2=O)CC(O)(C(=O)CO)CC3OC1CC(N)C(O)C(C)O1 (centres undefined) + CN(C)c1ccc(Nc2c3ccc(NC(=O)CCN4CCCC4)cc3nc3cc(NC(=O)CCN4CCCC4)ccc23)cc1
- IC50 (second compound 0.0316 µM): > 10 µM
- IC50 (second compound 0.1 µM): > 10 µM
- IC50 (second compound 0.316 µM): > 10 µM
- IC50 (second compound 1 µM): > 10 µM
- IC50 (second compound 3.16 µM): < 0.0316 µM
- IC50 (second compound 10 µM): > 10 µM
- viability, T/C [1]: 88%
- viability, T/C [2]: 94.7%
- viability, T/C [3]: 77.5%
- viability, T/C [4]: 61.7%
- viability, T/C [5]: 43%
- viability, T/C [6]: 66.7%
- viability, T/C [7]: 102%
- viability, T/C [8]: 83.8%
- viability, T/C [9]: 72.8%
- viability, T/C [10]: 74.8%
- viability, T/C [11]: 60.6%
- viability, T/C [12]: 76.7%
- viability, T/C [13]: 80.6%
- viability, T/C [14]: 68.4%
- viability, T/C [15]: 67.9%
- viability, T/C [16]: 40.8%
- viability, T/C [17]: 63.1%
- viability, T/C [18]: 54.4%
- viability, T/C [19]: 55.8%
- viability, T/C [20]: 47%
- viability, T/C [21]: 53.2%
- viability, T/C [22]: 52.3%
- viability, T/C [23]: 63.5%
- viability, T/C [24]: 52.8%
- viability, T/C [25]: 49.6%
- viability, T/C [26]: 49.3%
- viability, T/C [27]: 56.8%
- viability, T/C [28]: 56.4%
- viability, T/C [29]: 59.4%
- viability, T/C [30]: 53.7%
- viability, T/C [31]: 48.6%
- viability, T/C [32]: 51.5%
- viability, T/C [33]: 55.7%
- viability, T/C [34]: 62.6%
- viability, T/C [35]: 50.5%
- viability, T/C [36]: 43.5%
